Assays:
[1] = biological target: T1, Recombinant human integrin α4β7 (Homo sapiens, UniProt P13612+P26010, DEL724-798); assay: Integrin α4β7—MAdCAM-1 ELISA competition assay; type: binding; details: ratio a4b1 ELISA IC50 / a4b7 ELISA IC50
T1 construct: purchased R&D Systems 5397-A3-050
T1 sequence (P13612 34-977 limits assumed): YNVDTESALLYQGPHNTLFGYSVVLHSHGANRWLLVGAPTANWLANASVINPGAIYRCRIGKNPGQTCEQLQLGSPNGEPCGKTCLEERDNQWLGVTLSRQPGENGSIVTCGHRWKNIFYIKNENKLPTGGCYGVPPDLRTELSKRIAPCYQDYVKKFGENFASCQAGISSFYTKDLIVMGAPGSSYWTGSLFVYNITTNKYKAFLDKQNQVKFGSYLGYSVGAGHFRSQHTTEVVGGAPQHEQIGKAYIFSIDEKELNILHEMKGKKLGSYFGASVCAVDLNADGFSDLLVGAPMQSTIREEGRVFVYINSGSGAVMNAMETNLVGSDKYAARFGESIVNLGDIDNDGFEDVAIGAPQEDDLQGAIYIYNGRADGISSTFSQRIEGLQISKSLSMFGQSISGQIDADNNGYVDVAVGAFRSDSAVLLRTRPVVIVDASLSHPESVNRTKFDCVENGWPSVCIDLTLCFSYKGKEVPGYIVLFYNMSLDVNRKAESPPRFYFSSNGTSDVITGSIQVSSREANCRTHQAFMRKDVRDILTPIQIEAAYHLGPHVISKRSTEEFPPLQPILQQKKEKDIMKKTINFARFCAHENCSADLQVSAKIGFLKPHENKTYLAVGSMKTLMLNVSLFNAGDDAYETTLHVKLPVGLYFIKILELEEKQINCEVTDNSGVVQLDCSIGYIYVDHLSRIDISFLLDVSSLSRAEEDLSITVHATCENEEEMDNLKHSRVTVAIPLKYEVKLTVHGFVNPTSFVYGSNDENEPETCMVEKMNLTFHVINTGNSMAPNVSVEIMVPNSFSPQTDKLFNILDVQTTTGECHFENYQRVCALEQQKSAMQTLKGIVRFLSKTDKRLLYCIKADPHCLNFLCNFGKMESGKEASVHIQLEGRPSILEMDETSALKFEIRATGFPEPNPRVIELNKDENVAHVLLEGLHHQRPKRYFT
T1 sequence (P26010 20-723 limits assumed): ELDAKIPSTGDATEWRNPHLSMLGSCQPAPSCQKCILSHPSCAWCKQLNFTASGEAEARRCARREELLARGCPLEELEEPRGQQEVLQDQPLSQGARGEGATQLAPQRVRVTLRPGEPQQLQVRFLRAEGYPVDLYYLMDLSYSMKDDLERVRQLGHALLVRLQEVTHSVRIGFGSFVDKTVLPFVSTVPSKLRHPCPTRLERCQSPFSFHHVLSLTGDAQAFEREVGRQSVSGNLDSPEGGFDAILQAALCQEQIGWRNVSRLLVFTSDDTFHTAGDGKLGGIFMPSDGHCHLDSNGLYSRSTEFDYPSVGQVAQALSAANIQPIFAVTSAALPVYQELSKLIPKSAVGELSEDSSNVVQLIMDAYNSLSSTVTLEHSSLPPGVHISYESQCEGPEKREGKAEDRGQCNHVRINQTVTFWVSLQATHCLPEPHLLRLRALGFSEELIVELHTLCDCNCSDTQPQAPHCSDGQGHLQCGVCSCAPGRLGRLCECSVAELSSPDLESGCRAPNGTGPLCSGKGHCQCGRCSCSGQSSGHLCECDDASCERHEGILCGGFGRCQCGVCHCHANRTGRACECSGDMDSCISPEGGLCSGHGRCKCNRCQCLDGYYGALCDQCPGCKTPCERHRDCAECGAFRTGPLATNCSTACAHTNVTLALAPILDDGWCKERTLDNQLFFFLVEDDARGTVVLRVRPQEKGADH
Method: Integrin α4β7—MAdCAM-1 ELISA Competition Assay
Protocol • 1.1 Preparation of α4β7. • 1.1.1 Add 500 μL of PBS to the vial. […] Mix by inversion before use. Keep at 4° C. for up to 1 month. • Final concentration is 100 pg/mL • 1.1 Preparation of MadCam-Fc. • 1.1.1 Add 500 μL of Assay buffer to the vial. […] Mix by inversion before use.

CYP1A2 = biological target: T2, CYP1A2 (Homo sapiens, UniProt P05177); assay: in vitro
T2 sequence (P05177 1-516): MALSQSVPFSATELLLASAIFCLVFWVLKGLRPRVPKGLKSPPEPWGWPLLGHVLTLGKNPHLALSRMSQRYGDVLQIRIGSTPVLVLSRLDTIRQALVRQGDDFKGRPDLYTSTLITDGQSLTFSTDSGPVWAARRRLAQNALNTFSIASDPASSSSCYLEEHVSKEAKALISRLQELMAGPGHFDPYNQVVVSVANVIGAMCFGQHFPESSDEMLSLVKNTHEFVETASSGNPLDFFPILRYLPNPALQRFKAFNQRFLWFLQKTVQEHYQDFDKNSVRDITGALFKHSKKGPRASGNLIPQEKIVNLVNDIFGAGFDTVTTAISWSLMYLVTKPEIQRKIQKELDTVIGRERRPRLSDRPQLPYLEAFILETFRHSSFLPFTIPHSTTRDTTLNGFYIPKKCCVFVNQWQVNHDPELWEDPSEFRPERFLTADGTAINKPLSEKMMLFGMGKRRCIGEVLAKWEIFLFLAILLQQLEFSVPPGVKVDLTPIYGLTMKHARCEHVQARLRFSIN
Method: (§1) Cytochrome P450 Inhibition Assay
(§2) Analyses were performed using standard LC/MS/MS protocols.

CYP2C9 = CYP2C9 (Homo sapiens, UniProt P11712); assay: in vitro
Chain of CYP2C9 (P11712 whole entry): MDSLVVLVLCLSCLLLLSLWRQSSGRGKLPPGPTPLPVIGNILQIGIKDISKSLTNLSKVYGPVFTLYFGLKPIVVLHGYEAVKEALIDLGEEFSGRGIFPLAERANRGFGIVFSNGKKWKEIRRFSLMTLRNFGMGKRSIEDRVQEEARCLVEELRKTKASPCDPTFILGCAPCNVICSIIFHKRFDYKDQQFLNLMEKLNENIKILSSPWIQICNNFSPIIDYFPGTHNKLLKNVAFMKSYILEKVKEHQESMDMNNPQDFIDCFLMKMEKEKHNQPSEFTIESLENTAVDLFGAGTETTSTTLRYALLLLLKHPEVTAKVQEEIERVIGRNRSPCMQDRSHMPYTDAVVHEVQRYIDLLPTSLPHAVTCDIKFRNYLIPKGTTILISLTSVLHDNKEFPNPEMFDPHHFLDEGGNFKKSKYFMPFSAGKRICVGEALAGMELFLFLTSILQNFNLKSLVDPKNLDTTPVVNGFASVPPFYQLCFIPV
Method: as §1, §2

CYP3A4 = CYP3A4 (Homo sapiens, UniProt P08684); assay: in vitro
Chain of CYP3A4 (P08684 whole entry): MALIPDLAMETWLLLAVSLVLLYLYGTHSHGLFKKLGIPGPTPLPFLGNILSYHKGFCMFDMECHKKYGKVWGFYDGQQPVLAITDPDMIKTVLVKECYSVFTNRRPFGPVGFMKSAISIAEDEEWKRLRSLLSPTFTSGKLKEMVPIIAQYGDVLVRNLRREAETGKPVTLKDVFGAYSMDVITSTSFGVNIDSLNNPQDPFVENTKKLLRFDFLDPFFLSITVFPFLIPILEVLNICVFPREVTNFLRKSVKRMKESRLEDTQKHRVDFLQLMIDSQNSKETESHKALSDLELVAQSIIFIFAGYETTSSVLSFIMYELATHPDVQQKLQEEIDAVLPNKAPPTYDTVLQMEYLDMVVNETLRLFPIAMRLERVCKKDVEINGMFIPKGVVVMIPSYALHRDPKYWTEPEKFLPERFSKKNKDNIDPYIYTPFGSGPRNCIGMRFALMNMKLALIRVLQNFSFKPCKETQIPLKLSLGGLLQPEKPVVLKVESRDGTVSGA
Method: as §1, §2

in vitro = details: Control buffer/Buffer at 0.1 uM % Recovery
Method: (§3) An equilibrium dialysis (HTDialysis) method was used employing 50% plasma collected from CD-1 mice or Sprague-Dawley rats and incubated with K2EDTA. Test articles were assessed at 1 microM concentration in three replicates. Incubation time as 5 hours and plasma and buffer standards were assessed using LC/MS/MS. Percentage recovery was calculated as (Cbuffer+Cplasma)/[average]Cinitial, [average]Cinitial being measured in triplicate from the test samples prior to dialysis. Percentage of compound unbound was calculated as Cbuffer/Cplasma.

plasma proteins [2] = assay: in vitro; details: CD-1, mouse
Method: as §3

CYP2D6 = CYP2D6 (Homo sapiens, UniProt P10635); assay: in vitro
Chain of CYP2D6 (P10635 whole entry): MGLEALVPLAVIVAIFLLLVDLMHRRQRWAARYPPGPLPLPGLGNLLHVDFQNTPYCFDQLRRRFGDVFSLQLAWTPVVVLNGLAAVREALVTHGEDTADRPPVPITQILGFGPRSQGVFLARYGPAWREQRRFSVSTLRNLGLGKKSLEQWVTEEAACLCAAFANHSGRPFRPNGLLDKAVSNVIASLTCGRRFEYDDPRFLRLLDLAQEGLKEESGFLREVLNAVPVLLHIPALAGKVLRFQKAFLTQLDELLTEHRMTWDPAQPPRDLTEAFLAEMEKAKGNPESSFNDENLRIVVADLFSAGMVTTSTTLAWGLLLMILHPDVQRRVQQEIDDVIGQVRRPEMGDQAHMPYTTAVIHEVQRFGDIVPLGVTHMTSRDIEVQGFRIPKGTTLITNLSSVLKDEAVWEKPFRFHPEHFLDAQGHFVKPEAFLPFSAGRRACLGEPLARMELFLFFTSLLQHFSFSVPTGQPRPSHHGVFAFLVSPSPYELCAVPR

[3] = Plasma protein binding determination, equilibrium dialysis, mouse plasma; details: first table; buffer/buffer control
Method: as §3

plasma proteins [4] = assay: as above; details: CD-1, mouse, % recovery, Mouse plasma, equilibrium dialysis
Method: as §3

[5] = tested on: DSS experimental model of ulcerative colitis; assay: 8-Day efficacy study in DSS model (therapeutic); type: in vivo, C57BI/6 mice; details: 40 mg/kg p.o.
From the text: The STDs in ascending order bracketing the study samples and dosing solutions • 1. The study samples • 2.
Description of Tested Compounds
Animals. Female C57BI/6 mice (Charles River, St-Constant, Qc), weighting 16-19 g at delivery were used for this study. Following arrival in the animal facility, all animals were subjected to a general health evaluation. An acclimation period of 7-14 days was allowed before the beginning of the study.
Oral dosing of the test article and the vehicle. From Day 5 to Day 8, nacellins and the vehicle were administered as a single slow bolus (over approximately 5 seconds) via oral route (p.o.), according to the procedure of administration of solution by gavage: the animal was firmly restrained. A bulb-tipped gastric gavage needle of 22G was passed through the side of the mouth and was advanced towards the oesophagus. The test articles and the vehicle were dosed orally at 5 mL/kg.
Intraperitoneal dosing of the test articles and the vehicle. On day 5, DATK32 antibody was administered in only on Day 5, as a single slow bolus (over approximately 5 seconds) via the i.p. route. […] Intraperitoneal administration was performed accordingly to the following procedure: the mouse was restrained manually and held with the head and body tilted downward. The tip of the needle (27 G) was inserted through the skin and just past the abdominal wall. A short pull back of the plunger of the syringe was done prior to administration of the solution to make sure that the syringe was not inserted in any abdominal organ (fluid would be pulled back into the syringe in this case).
Inflammation Score. Once the mouse was euthanized, the colon was collected and its length was measured. Lesion length was also measured. Colon inflammation was scored based on severity of oedema and ulceration.
Disease Activity Index (DAI) assessment. Body weight and DAI were measured on Day 5 in order to distribute DSS-treated animals in two uniform groups prior dosing. Specific symptoms associated to UC were scored based on the severity of each particular symptoms: 1—blood in stool (negative hemoccult, positive hemoccult, blood traces in stool visible, rectal bleeding); 2—stool consistency (normal, soft but still formed, very soft, diarrhea); 3—posture and fur (normal; ruffled fur; ruffled fur combined to slight hunched posture and slight dehydration; ruffled fur combined to hunched posture, dehydration and altered walking; moribund (euthanasia is mandatory before the animal reach this point). The overall DAI score was the sum of the three parameters (maximum score 9). Body weight measurement and DAI assessment were performed also on Day 8 to evaluate the effect of the treatments.
Collection of samples. On Day 8, five hours after ET02451-01, ET02452-01 and vehicle dosing, the animals were euthanized by cardiac puncture under general anesthesia, according to the “Guide to the Care and Use of Experimental Animals” published by the CCAC. Blood was transferred in a Sarstedt tube containing EDTA. Mesenteric and peripheral (inguinal, auxiliary and brachial) lymph nodes were collected and transferred on ice in corresponding tubes containing cold PBS. Nodes were kept on ice until tissue preparation.
Cell population labeling. Blood was withdrawn by cardiac puncture and collected on EDTA-coated tubes. Mensenteric lymph nodes (MLN) and peripheral lymph nodes (PLN) were also collected. Mononuclear cells from the tissues will be isolated using density gradient (Lympholyte) and they were stained with fluorescent antibodies. […] After washes, cells were fixed using BD Fix Solution. Percentage of different subpopulations of T lymphocytes were then analysed using FACSCalibur cytometer. Antibodies employed were the same as listed for the single-dose PD studies above.

[6] = mouse, in vivo
Method: (§4) In Vivo Pharmacokinetic Assessments in Rodents
(§5) Oral bioavailability of test compounds was conducted by assessing plasma exposure of following one or two oral doses in mice and, in some cases, comparing said plasma exposure with that following a single intravenous dose of the same compound.
(§6) Body weights were recorded on the day of dosing.
(§7) Food restriction: Animals dosed p.o. were deprived of food overnight and fed ˜2 h following dosing.
(§8) Dosing: The formulation containing the test compound were administered p.o. by gavage with disposable feeding needles.
(§9) Sample collection: Terminal blood and tissue samples were collected under O2/CO2 anesthesia by cardiac puncture.
(§10) Sample processing/storage: All blood samples were transferred into K2EDTA tubes on wet ice and centrifuged within 5 min (3200×g for 5 min at 4° C.) to obtain plasma. Samples were stored frozen at −80° C. until bioanalysis.
(§11) Bioanalytical Method Qualification and Sample Analysis:
(§12) Instrumentation: AB Sciex API 4000 Q-TRAP MS/MS system equipped with an Agilent LC system with a binary pump, a solvent degasser, a thermostatted column compartment, a CTC autosampler and a divert valve installed between the column and mass spectrometer inlet.

in vivo = details: male, CD-1, mouse
Method: as §4, §5, §6, §7, §8, §9, §10, §11, §12

[7] = In vivo pharmacokinetic assessments in rodents; details: for F: plasma
Method: as §4, §5, §6, §7, §8, §9, §10, §11, §12

## CC(C)C[C@@H]1NC(=O)[C@H]2CCCCN2C(=O)[C@H](Cc2ccc(O)cc2)N(C)C(=O)[C@@H]2CCCN2[C@H](C(=O)NC(C)(C)C)[C@H](C)NC(=O)[C@H]([C@@H](C)O)NC(=O)[C@H](CC(=O)O)NC1=O [Compound 148]
[1]
  Selectivity ELISA: 1.2

## CC[C@H](C)[C@@H]1NC(=O)[C@H](CC(=O)O)NC(=O)[C@H](CC(C)C)NC(=O)[C@H](Cc2ccc3ccccc3c2)NC(=O)[C@@H]2CCCN2[C@H](C(=O)NC(C)(C)C)[C@H](C)NC1=O [Compound No. 15]
CYP1A2
  IC50: > 15 µM
CYP2C9
  IC50: > 15 µM
CYP3A4
  IC50: > 15 µM
In vitro
  recovery at 5 hours, 0.1 uM: 70%
Plasma proteins [2]; % unbound (Cbuffer/Cplasma) 1
  fraction unbound at 5 hours, 1 microM: 0.1
Plasma proteins [2]; % unbound (Cbuffer/Cplasma) 2
  fraction unbound at 5 hours, 1 microM: 0.093
Plasma proteins [2]; % unbound (Cbuffer/Cplasma) 3
  fraction unbound at 5 hours, 1 microM: 0.136
CYP2D6
  IC50: > 15 µM
[3]
  Control buffer/Buffer at 0.1 uM Cdonor/Creciever: 86%
Plasma proteins [4]; first table
  recovery at 5 hours, 1 microM: 103%
Plasma proteins [4]; second table
  recovery at 5 hours, 1 microM: 143%

## COc1ccccc1-c1ccccc1C[C@@H]1NC(=O)[C@@H]2CCCN2[C@H](C(=O)NC(C)(C)C)[C@H](C)NC(=O)[C@H]([C@@H](C)O)NC(=O)[C@H](CC(=O)O)NC(=O)[C@H](CC(C)C)NC(=O)[C@H]2CCCCN2C1=O [Compound 135]
[1]
  Selectivity ELISA: 4.9

## CC(C)C[C@@H]1NC(=O)c2ccc(-c3ccc(N4CCNCC4)cc3)c(c2)CNC(=O)[C@@H]2CCCN2[C@H](C(=O)NC(C)(C)C)[C@H](C)NC(=O)[C@H]([C@@H](C)O)NC(=O)[C@H](CC(=O)O)NC1=O [Compound No. 340]
[5]
  CD3+CD4+α4β7+ cell population in mesenteric lymph nodes: significant decrease
[5]; Day 5 to Day 8
  reduction of lesion length vs vehicle group: significantly reduced the lesion length
[5]; b.i.d., Day 5 to Day 8
  reduction of DAI score on Day 8 vs DSS+vehicle: 15%
[5]; vehicle group 40%
  lesion/colon length: 12%
[6]
  oral bioavailability (in words): significant absorption from the gut and systemic exposure
In vivo
  bioavailability: ~11%
In vivo; iv, 5 mg/kg
  AUC(0-inf): 778 ng·h/mL
  C0: 1410 ng/mL
  Cmax: 1330 ng/mL
  MRT inf: 41.9 min
  Vd: 4.49 L/kg
  clearance: 107 mL/min/kg
  half-life: 120 min
In vivo; po, 40 mg/kg
  AUC(0-inf): 690 ng·h/mL
  AUC(0-t): 686 ng·h/mL
  MRT inf: 41.3 min
  half-life: 32.2 min
[7]; following oral dosing 40 mg/kg
  half-life in the liver: ~480 min
[7]; male, CD-1, mouse, in vivo, iv, 5 mg/kg
  AUC(0-t): 778 ng·h/mL
[7]; male, CD-1, mouse, in vivo, po, 40 mg/kg
  Tmax: 5 min
[7]; male, CD-1, mouse, in vivo, po, 40 mg/kg, elimination half-life in plasma, following oral dosing 40 mg/kg
  half-life: ~30 min
[7]; male, CD-1, mouse, in vivo, po, 40 mg/kg, half-life in colon, following oral dosing 40 mg/kg
  half-life: > 1260 min
[7]; i.v. 5 mg/kg
  F: 100%
[7]; p.o. 40 mg/kg
  F: 11.0%
